Experimental findings from patent publication US9340590B2 (priority 2011, dated 2016) are described below.

Like-named read-outs stand apart in the source and are kept apart here. Positions of bridges follow the written chain, without caps; N, C: chain ends. Residues, ends and D or L forms follow the SMILES beside them.

The test addresses hNav1.3 (Homo sapiens, UniProt Q9NY46). Briefly: cell-based. The following applies: for IC50: IonWorks Quattro, read-out: IWQ Use Nav1.3.

Chain of hNav1.3 (Q9NY46 whole entry, looked up): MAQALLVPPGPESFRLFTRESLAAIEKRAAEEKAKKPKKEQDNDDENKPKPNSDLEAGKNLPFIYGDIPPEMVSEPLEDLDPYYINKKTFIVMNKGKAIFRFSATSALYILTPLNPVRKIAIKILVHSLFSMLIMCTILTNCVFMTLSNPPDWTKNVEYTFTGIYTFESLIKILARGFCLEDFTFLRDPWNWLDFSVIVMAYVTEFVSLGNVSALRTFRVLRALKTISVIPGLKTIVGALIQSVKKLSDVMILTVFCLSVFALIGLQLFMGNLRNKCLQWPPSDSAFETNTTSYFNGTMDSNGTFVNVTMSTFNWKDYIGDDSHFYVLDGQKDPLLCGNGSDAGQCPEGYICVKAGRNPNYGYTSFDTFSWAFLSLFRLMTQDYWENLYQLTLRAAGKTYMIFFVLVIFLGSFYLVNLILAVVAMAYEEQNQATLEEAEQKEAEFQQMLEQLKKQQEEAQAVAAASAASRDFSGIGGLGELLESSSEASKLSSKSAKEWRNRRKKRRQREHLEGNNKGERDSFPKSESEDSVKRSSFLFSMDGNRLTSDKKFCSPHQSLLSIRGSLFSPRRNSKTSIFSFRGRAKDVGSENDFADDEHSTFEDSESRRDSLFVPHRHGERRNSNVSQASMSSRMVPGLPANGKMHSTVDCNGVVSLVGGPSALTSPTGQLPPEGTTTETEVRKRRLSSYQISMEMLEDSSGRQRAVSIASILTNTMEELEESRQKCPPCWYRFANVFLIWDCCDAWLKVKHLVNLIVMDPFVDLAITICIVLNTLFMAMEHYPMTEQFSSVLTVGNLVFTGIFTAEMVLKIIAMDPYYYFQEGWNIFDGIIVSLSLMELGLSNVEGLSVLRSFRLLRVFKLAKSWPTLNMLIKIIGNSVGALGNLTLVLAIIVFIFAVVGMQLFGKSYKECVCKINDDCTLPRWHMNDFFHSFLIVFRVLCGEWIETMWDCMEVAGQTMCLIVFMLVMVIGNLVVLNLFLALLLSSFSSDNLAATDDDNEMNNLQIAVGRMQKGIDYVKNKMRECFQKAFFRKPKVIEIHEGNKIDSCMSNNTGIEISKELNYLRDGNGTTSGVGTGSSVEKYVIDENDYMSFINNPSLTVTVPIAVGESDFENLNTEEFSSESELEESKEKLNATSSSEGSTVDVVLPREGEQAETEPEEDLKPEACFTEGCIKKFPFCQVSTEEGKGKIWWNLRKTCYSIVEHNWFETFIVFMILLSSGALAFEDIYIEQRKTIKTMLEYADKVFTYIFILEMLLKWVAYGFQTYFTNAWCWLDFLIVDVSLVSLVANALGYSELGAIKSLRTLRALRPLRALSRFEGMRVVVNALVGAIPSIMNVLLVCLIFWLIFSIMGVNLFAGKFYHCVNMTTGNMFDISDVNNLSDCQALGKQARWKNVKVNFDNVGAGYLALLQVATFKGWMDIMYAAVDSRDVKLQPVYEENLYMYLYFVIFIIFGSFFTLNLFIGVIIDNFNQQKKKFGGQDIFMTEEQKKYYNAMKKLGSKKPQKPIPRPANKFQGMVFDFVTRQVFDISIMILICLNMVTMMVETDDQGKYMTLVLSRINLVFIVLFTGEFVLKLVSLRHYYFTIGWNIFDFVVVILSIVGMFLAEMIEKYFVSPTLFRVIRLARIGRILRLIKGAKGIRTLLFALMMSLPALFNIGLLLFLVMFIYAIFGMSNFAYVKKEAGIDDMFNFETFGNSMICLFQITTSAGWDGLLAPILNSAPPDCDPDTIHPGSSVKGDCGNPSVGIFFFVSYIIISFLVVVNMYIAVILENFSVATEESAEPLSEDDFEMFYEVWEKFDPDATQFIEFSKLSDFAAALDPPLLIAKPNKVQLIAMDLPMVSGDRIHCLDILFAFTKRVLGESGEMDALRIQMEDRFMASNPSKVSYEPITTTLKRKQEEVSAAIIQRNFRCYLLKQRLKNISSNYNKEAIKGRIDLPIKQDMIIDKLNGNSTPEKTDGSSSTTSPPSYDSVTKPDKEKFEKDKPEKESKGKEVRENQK

Take `CC[C@H](C)[C@@H]1NC(=O)[C@@H]2CSSC[C@@H]3NC(=O)[C@H](C(C)C)NC(=O)[C@H](CC(C)C)NC(=O)[C@H](CC(N)=O)NC(=O)[C@@H]4CCCN4C(=O)[C@H](CCCNC(=N)N)NC(=O)[C@H](CSSC[C@H](NC(=O)[C@@H](N)CC(=O)O)C(=O)N[C@@H](CC(C)C)C(=O)NCC(=O)N[C@@H](Cc4ccccc4)C(=O)N[C@@H](CCSC)C(=O)N[C@@H](CCCNC(=N)N)C(=O)N[C@@H](CCCCN)C(=O)N2)NC(=O)[C@H](CSSC[C@@H](C(=O)N[C@@H](CCCCN)C(=O)N[C@@H](Cc2ccc(O)cc2)C(=O)N[C@H](C(=O)N[C@@H](Cc2ccccc2)C(N)=O)C(C)C)NC(=O)[C@H](Cc2c[nH]c4ccccc24)NC(=O)[C@H](CC(=O)O)NC(=O)[C@H](Cc2cnc[nH]2)NC(=O)[C@H]([C@@H](C)O)NC(=O)[C@H](CCCNC(=N)N)NC(=O)[C@H](CO)NC3=O)NC(=O)[C@H](CCCCN)NC(=O)[C@H](CC(=O)O)NC(=O)[C@H](CC(N)=O)NC(=O)[C@H](CC(=O)O)NC(=O)[C@@H]2CCCN2C1=O` [SEQ ID NO: 750, [Asp28]GpTx-1] (H-DCLGFMRKCIPDNDKCCRPNLVCSRTHDWCKYVF-NH2; disulfide 2-17, 9-23, 16-30): the IC50 (use-dependent block, hNav1.3) came out at 770 nM.
Regarding `CSCC[C@@H]1NC(=O)[C@H](Cc2ccccc2)NC(=O)CNC(=O)[C@H](CC(C)C)NC(=O)[C@@H](NC(=O)[C@@H](N)CC(=O)O)CSSC[C@@H]2NC(=O)[C@@H]3CSSC[C@@H](C(=O)N[C@@H](CCCCN)C(=O)N[C@@H](Cc4ccc(O)cc4)C(=O)N[C@H](C(=O)N[C@@H](Cc4ccccc4)C(N)=O)C(C)C)NC(=O)[C@H](Cc4c[nH]c5ccccc45)NC(=O)[C@H](CCCCN)NC(=O)[C@H](Cc4cnc[nH]4)NC(=O)[C@H]([C@@H](C)O)NC(=O)[C@H](CCCNC(=N)N)NC(=O)[C@H](CO)NC(=O)[C@H](CSSC[C@H](NC(=O)[C@H](CCCCN)NC(=O)[C@H](CCCNC(=N)N)NC1=O)C(=O)N[C@@H]([C@@H](C)O)C(=O)N1CCC[C@H]1C(=O)N[C@@H](CC(=O)O)C(=O)N[C@@H](CC(N)=O)C(=O)N[C@@H](CC(=O)O)C(=O)N[C@@H](CCCCN)C(=O)N3)NC(=O)[C@H](C(C)C)NC(=O)[C@H](CC(C)C)NC(=O)[C@H](CC(N)=O)NC(=O)[C@@H]1CCCN1C(=O)[C@H](CCCNC(=N)N)NC2=O` [compound 309] (H-DCLGFMRKCTPDNDKCCRPNLVCSRTHKWCKYVF-NH2; disulfide 2-17, 9-23, 16-30), the IC50 (Use) was 60 nM.
Turning to `CC[C@H](C)[C@@H]1NC(=O)[C@@H]2CSSC[C@@H]3NC(=O)[C@H](C(C)C)NC(=O)[C@H](CC(C)C)NC(=O)[C@H](CC(N)=O)NC(=O)[C@@H]4CCCN4C(=O)[C@H](CCCNC(=N)N)NC(=O)[C@H](CSSC[C@H](NC(=O)[C@@H](N)CC(=O)O)C(=O)N[C@@H](CC(C)C)C(=O)NCC(=O)N[C@@H](Cc4ccccc4)C(=O)N[C@@H](Cc4ccccc4)C(=O)N[C@@H](CCCNC(=N)N)C(=O)N[C@@H](CCCCN)C(=O)N2)NC(=O)[C@H](CSSC[C@@H](C(=O)N[C@@H](CCCCN)C(=O)N[C@@H](Cc2cn(CCOCCOCCOCCOCCOCCOCCOCCOCCOCCOCCN)nn2)C(=O)N[C@H](C(=O)N[C@@H](Cc2cccc4ccccc24)C(N)=O)C(C)C)NC(=O)[C@H](Cc2c[nH]c4ccccc24)NC(=O)[C@H](CCCCN)NC(=O)[C@H](Cc2c[nH]cn2)NC(=O)[C@H]([C@@H](C)O)NC(=O)[C@H](CCCNC(=N)N)NC(=O)[C@H](CO)NC3=O)NC(=O)[C@H](CCCCN)NC(=O)[C@H](CC(=O)O)NC(=O)[C@H](CC(N)=O)NC(=O)[C@H](CC(=O)O)NC(=O)[C@@H]2CCCN2C1=O` [compound 559], under “ratio of IWQ Use IC50 values”, the Nav1.7/Nav1.3 worked out at 2.3.
Same read-out and setting: for `CC[C@H](C)[C@@H]1NC(=O)[C@@H]2CSSC[C@@H]3NC(=O)[C@H](C(C)C)NC(=O)[C@H](CC(C)C)NC(=O)[C@H](CC(N)=O)NC(=O)[C@@H]4CCCN4C(=O)[C@H](CCCNC(=N)N)NC(=O)[C@H](CSSC[C@H](NC(=O)[C@@H](N)CC(=O)O)C(=O)N[C@@H](CC(C)C)C(=O)NCC(=O)N[C@@H](Cc4ccccc4)C(=O)N[C@@H](Cc4ccccc4)C(=O)N[C@@H](CCCNC(=N)N)C(=O)N[C@@H](CCCCN)C(=O)N2)NC(=O)[C@H](CSSC[C@@H](C(=O)N[C@@H](CCCCN)C(=O)N[C@@H](Cc2ccc(O)cc2)C(=O)N[C@H](C(=O)N[C@@H](Cc2ccccc2)C(=O)N[C@@H](Cc2cn(CCOCCOCCOCCOCCOCCOCCOCCOCCOCCOCCN)nn2)C(N)=O)C(C)C)NC(=O)[C@H](Cc2c[nH]c4ccccc24)NC(=O)[C@H](CCCCN)NC(=O)[C@H](Cc2c[nH]cn2)NC(=O)[C@H](CC(C)C)NC(=O)[C@H](CCCNC(=N)N)NC(=O)[C@H](CO)NC3=O)NC(=O)[C@H](CCCCN)NC(=O)[C@H](CC(=O)O)NC(=O)[C@H](CC(N)=O)NC(=O)[C@H](CC(=O)O)NC(=O)[C@@H]2CCCN2C1=O` [compound 588] the value was 3.3.
Regarding `CSCC[C@@H]1NC(=O)[C@H](Cc2ccccc2)NC(=O)CNC(=O)[C@H](CC(C)C)NC(=O)[C@@H](NC(=O)[C@@H](N)CC(=O)O)CSSC[C@@H]2NC(=O)[C@@H]3CSSC[C@@H](C(=O)N[C@@H](CCCCN)C(=O)N[C@@H](Cc4ccc(O)cc4)C(=O)N[C@H](C(=O)N[C@@H](Cc4ccccc4)C(N)=O)C(C)C)NC(=O)[C@H](Cc4c[nH]c5ccccc45)NC(=O)[C@H](CCCCN)NC(=O)[C@H](Cc4cnc[nH]4)NC(=O)[C@H]([C@@H](C)O)NC(=O)[C@H](CCCNC(=N)N)NC(=O)[C@H](CO)NC(=O)[C@H](CSSC[C@H](NC(=O)[C@H](CCCCN)NC(=O)[C@H](CCCNC(=N)N)NC1=O)C(=O)N[C@@H](CCSC)C(=O)N1CCC[C@H]1C(=O)N[C@@H](CC(=O)O)C(=O)N[C@@H](CC(N)=O)C(=O)N[C@@H](CC(=O)O)C(=O)N[C@@H](CCCCN)C(=O)N3)NC(=O)[C@H](C(C)C)NC(=O)[C@H](CC(C)C)NC(=O)[C@H](CC(N)=O)NC(=O)[C@@H]1CCCN1C(=O)[C@H](CCCNC(=N)N)NC2=O` [compound 307] (H-DCLGFMRKCMPDNDKCCRPNLVCSRTHKWCKYVF-NH2; disulfide 2-17, 9-23, 16-30), the IC50 (Use) stood at 100 nM.
Turning to `CC[C@H](C)[C@@H]1NC(=O)[C@@H]2CSSC[C@@H]3NC(=O)[C@H](C(C)C)NC(=O)[C@H](CC(C)C)NC(=O)[C@H](CC(N)=O)NC(=O)[C@@H]4CCCN4C(=O)[C@H](CCCNC(=N)N)NC(=O)[C@H](CSSC[C@H](NC(=O)[C@@H](N)CC(=O)O)C(=O)N[C@@H](CC(C)C)C(=O)NCC(=O)N[C@@H](C)C(=O)N[C@@H](CC(C)C)C(=O)N[C@@H](CCCNC(=N)N)C(=O)N[C@@H](CCCCN)C(=O)N2)NC(=O)[C@H](CSSC[C@@H](C(=O)N[C@@H](CCCCN)C(=O)N[C@@H](Cc2ccc(O)cc2)C(=O)N[C@H](C(=O)N[C@@H](Cc2ccccc2)C(N)=O)C(C)C)NC(=O)[C@H](Cc2c[nH]c4ccccc24)NC(=O)[C@H](CCCNC(=N)N)NC(=O)[C@H](Cc2cnc[nH]2)NC(=O)[C@H]([C@@H](C)O)NC(=O)[C@H](CCCNC(=N)N)NC(=O)[C@H](CO)NC3=O)NC(=O)[C@H](CCCCN)NC(=O)[C@H](CC(=O)O)NC(=O)[C@H](CC(N)=O)NC(=O)[C@H](CC(=O)O)NC(=O)[C@@H]2CCCN2C1=O` [compound 810] (H-DCLGALRKCIPDNDKCCRPNLVCSRTHRWCKYVF-NH2; disulfide 2-17, 9-23, 16-30), where the note is “use-dependent block, hNav1.3”, the IC50 amounted to 200 nM.
Take `CC[C@H](C)[C@@H]1NC(=O)[C@@H]2CSSC[C@@H]3NC(=O)[C@H](C(C)C)NC(=O)[C@H](CC(C)C)NC(=O)[C@H](CC(N)=O)NC(=O)[C@@H]4CCCN4C(=O)[C@H](CCCNC(=N)N)NC(=O)[C@H](CSSC[C@H](NC(=O)[C@@H](N)CC(=O)O)C(=O)N[C@@H](CC(C)C)C(=O)NCC(=O)N[C@@H](C)C(=O)N[C@@H](CC(C)C)C(=O)N[C@@H](CCCNC(=N)N)C(=O)N[C@@H](CCCCN)C(=O)N2)NC(=O)[C@H](CSSC[C@@H](C(=O)N[C@@H](CCCCN)C(=O)N[C@@H](Cc2ccc(O)cc2)C(=O)N[C@H](C(=O)N[C@@H](Cc2ccccc2)C(N)=O)C(C)C)NC(=O)[C@H](Cc2c[nH]c4ccccc24)NC(=O)[C@H](CCCCN)NC(=O)[C@H](Cc2cnc[nH]2)NC(=O)[C@H]([C@@H](C)O)NC(=O)[C@H](CCCNC(=N)N)NC(=O)[C@H](CO)NC3=O)NC(=O)[C@H](CCCCN)NC(=O)[C@H](CC(=O)O)NC(=O)[C@H](CC(N)=O)NC(=O)[C@H](CC(=O)O)NC(=O)[C@@H]2CCCN2C1=O` [compound 696]: the IC50 (use-dependent protocol, hNav1.3) is 750 nM.
With `CC[C@H](C)[C@@H]1NC(=O)[C@@H]2CSSC[C@@H]3NC(=O)[C@H](C(C)C)NC(=O)[C@H](CC(C)C)NC(=O)[C@H](CC(N)=O)NC(=O)[C@@H]4CCCN4C(=O)[C@H](CCCNC(=N)N)NC(=O)[C@H](CSSC[C@H](NC(=O)[C@@H](N)CC(=O)O)C(=O)N[C@@H](CC(C)C)C(=O)NCC(=O)N[C@@H](Cc4ccc(OC)c(OC)c4)C(=O)N[C@@H](CCSC)C(=O)N[C@@H](CCCNC(=N)N)C(=O)N[C@@H](CCCCN)C(=O)N2)NC(=O)[C@H](CSSC[C@@H](C(=O)N[C@@H](CCCCN)C(=O)N[C@@H](Cc2ccc(O)cc2)C(=O)N[C@H](C(=O)N[C@@H](Cc2ccccc2)C(N)=O)C(C)C)NC(=O)[C@H](Cc2c[nH]c4ccccc24)NC(=O)[C@H](CCCCN)NC(=O)[C@H](Cc2c[nH]cn2)NC(=O)[C@H]([C@@H](C)O)NC(=O)[C@H](CCCNC(=N)N)NC(=O)[C@H](CO)NC3=O)NC(=O)[C@H](CCCCN)NC(=O)[C@H](CC(=O)O)NC(=O)[C@H](CC(N)=O)NC(=O)[C@H](CC(=O)O)NC(=O)[C@@H]2CCCN2C1=O` [compound 652], for the setting “ratio of IWQ Use values, Nav1.7 over Nav1.3”, the Nav1.7/Nav1.3 stood at 0.8.
